Assay results: publication PMC6857076 (Pharmacology Research & Perspectives, 2019)
Like-named read-outs stand apart in the source and are kept apart here.

Legend:
[1] = system: EPO cytokine receptor (JAK2/JAK2); assay: Human whole blood spiked with CD34+-derived erythroid progenitor cells, EPO-induced pSTAT5; assay type: cell-based; details: for IC50: Homo sapiens, Erythroid progenitor cell
Protocol: CD34^+ cells were then harvested, washed once with Dulbecco's (D)‐PBS, and suspended at 0.5 x 10^6 cells/mL in human whole blood to be used in the EPO stimulation assay.
Blood was warmed to 37°C prior to use.
Background fluorescence was defined using unstimulated cells and a gate was placed at the foot of the peak to include ~0.5% gated population.
(§1) Histogram statistical analysis was performed using FACSDiva version 8.0.1 (BD Biosciences). Relative fluorescence unit (RFU), which measures the level of pSTAT, was calculated by multiplying the percent positive population and its mean fluorescence. Data from 11 compound concentrations (singlicate at each concentration) were normalized as a percentage of control, as shown in Equation 1:(1) %ofcontrol=100×A−B/C−B
(§2) A, RFU from wells containing compound and cytokine; B, RFU from wells without cytokine (minimum fluorescence); C, RFU from wells containing only cytokine (maximum fluorescence).
(§3) Inhibition curves and IC50 values were determined using Prism software (Version 7, GraphPad).

[2] = system: TPO cytokine receptor (JAK2/JAK2); assay: Human whole blood, TPO-induced pSTAT5, CD14+ cells; assay type: cell-based; details: Homo sapiens
Protocol: Blood was warmed to 37°C prior to use.
(§4) Then, 5 µL of PBS or cytokine was added to each well (5 µL/well; final, 10 U/mL EPO, 100 ng/mL G‐CSF, 10 ng/mL GM‐CSF, 5000 U/mL IFNα, 100 ng/mL IFNγ, 50 ng/mL IL‐2, 50 ng/mL IL‐3, 5 ng/mL IL‐4, 50 ng/mL IL‐6, 30 ng/mL IL‐7, 30 ng/mL IL‐10, 30 ng/mL IL‐12, 30 ng/mL IL‐13, 30 ng/mL IL‐15, 50 ng/mL IL‐21, 25 ng/mL IL‐23, 1000 ng/mL IL‐27) and incubated for 15 minutes. Anti‐cell surface antibodies were added 15 minutes prior to cytokine stimulation; anti‐CD14‐Pacific Blue (0.5 µL/well) to GM‐CSF, IFNγ, and TPO‐treated samples; anti‐CD3‐BV650 (0.5 µL/well) plus anti‐CD14‐Pacific Blue (0.5 µL/well) to IL‐6‐treated samples; and anti‐CD19‐BV421 (0.5 µL/well) plus anti‐CD14‐AF488 (0.5 µL/well) to IL‐13‐treated samples.
(§5) One more wash was done with staining buffer and all samples were finally suspended in 150 µL/well of the desired anti‐pSTAT antibodies at 1:150 dilution in staining buffer; anti‐pSTAT1‐AF647 in IFNγ‐treated samples; anti‐pSTAT1‐AF488 and anti‐pSTAT3‐AF647 in IFNα‐, IL‐6‐, and IL‐27‐treated samples; anti‐pSTAT3‐AF647 in G‐CSF‐, IL‐10‐, IL‐21‐, and IL‐23‐treated samples; anti‐pSTAT4‐AF647 in IL‐12‐treated samples; anti‐pSTAT5‐AF647 in EPO‐, GM‐CSF‐, IL‐2‐, IL‐3‐, IL‐7‐, IL‐15‐, and TPO‐treated samples; anti‐pSTAT5‐AF488 and anti‐pSTAT6‐AF647 in IL‐4‐treated samples; and anti‐pSTAT6‐AF647 in IL‐13‐treated samples.
(§6) The lymphocyte population was gated for pSTAT histogram analysis for IFNα‐, IL‐2‐, IL‐3‐, IL‐4‐, IL‐7‐, IL‐10‐, IL‐12‐, IL‐15‐, IL‐21‐, IL‐23‐, and IL‐27‐treated samples; granulocyte population for G‐CSF‐treated samples; CD14^+ cells for GM‐CSF‐, IFNγ‐, and TPO‐treated samples; CD3^+ cells and CD14^+ cells for IL‐6‐treated samples; CD14^+ cells and CD19^+ cells for IL‐13‐treated samples; all events (entire populations) for EPO‐treated cells. Background fluorescence was defined using unstimulated cells and a gate was placed at the foot of the peak to include ~0.5% gated population.
as §1, §2, §3

[3] = system: JAK-dependent cytokine receptors; assay: Integrated modeling: calculated cytokine receptor inhibitory concentrations (ICxx); parameters: species or system human; details: calculated ICxx at clinically meaningful doses, Figure 1
Description: An integrated modeling approach was applied to determine cytokine receptor inhibition profiles. Whole blood IC50 values were converted to unbound values (IC50,u) using measured blood‐to‐plasma ratios and measured fu values, as shown in Equation 2:(2) IC50,u=IC50/blood:plasma ratio×fu

[4] = system: IL-27 cytokine receptor (JAK1/JAK2, JAK1/TYK2); assay: Human whole blood, IL-27-induced pSTAT3, lymphocytes; assay type: cell-based; details: Lymphocyte
Protocol: Blood was warmed to 37°C prior to use.
as §4, §5, §6, §1, §2, §3

[5] = system: IL-4 cytokine receptor (JAK1/JAK3); assay: Human whole blood, IL-4-induced pSTAT6, lymphocytes; assay type: cell-based; details: Lymphocyte
Protocol: Blood was warmed to 37°C prior to use.
as §4, §5, §6, §1, §2, §3

[6] = system: IL-12 cytokine receptor (JAK2/TYK2); assay: Human whole blood, IL-12-induced pSTAT4, lymphocytes; assay type: cell-based; details: for IC50: Homo sapiens, Lymphocyte
Protocol: Blood was warmed to 37°C prior to use.
as §4, §5, §6, §1, §2, §3

[7] = system: IL-7 cytokine receptor (JAK1/JAK3); assay: Human whole blood, IL-7-induced pSTAT5, lymphocytes; assay type: cell-based; details: Lymphocyte
Protocol: Blood was warmed to 37°C prior to use.
as §4, §5, §6, §1, §2, §3

[8] = system: IL-15 cytokine receptor (JAK1/JAK3); assay: Human whole blood, IL-15-induced pSTAT5, lymphocytes; assay type: cell-based; details: for IC50: Homo sapiens, Lymphocyte
Protocol: Blood was warmed to 37°C prior to use.
as §4, §5, §6, §1, §2, §3

[9] = system: IL-23 cytokine receptor (JAK2/TYK2); assay: Human whole blood, IL-23-induced pSTAT3, lymphocytes; assay type: cell-based; details: Lymphocyte
Protocol: Blood was warmed to 37°C prior to use.
(§7) Then, 5 µL of PBS or cytokine was added to each well (5 µL/well; final, 10 U/mL EPO, 100 ng/mL G‐CSF, 10 ng/mL GM‐CSF, 5000 U/mL IFNα, 100 ng/mL IFNγ, 50 ng/mL IL‐2, 50 ng/mL IL‐3, 5 ng/mL IL‐4, 50 ng/mL IL‐6, 30 ng/mL IL‐7, 30 ng/mL IL‐10, 30 ng/mL IL‐12, 30 ng/mL IL‐13, 30 ng/mL IL‐15, 50 ng/mL IL‐21, 25 ng/mL IL‐23, 1000 ng/mL IL‐27) and incubated for 15 minutes. […]
as §6
(§8) Histogram statistical analysis was performed using FACSDiva version 8.0.1 (BD Biosciences). Relative fluorescence unit (RFU), which measures the level of pSTAT, was calculated by multiplying the percent positive population and its mean fluorescence. […]
as §3

[10] = system: IL-6 cytokine receptor (JAK1/JAK2, JAK1/TYK2); assay: Human whole blood, IL-6-induced pSTAT1, CD3+ cells; assay type: cell-based; details: for IC50: Homo sapiens
Protocol: Blood was warmed to 37°C prior to use.
as §4, §5, §6, §1, §2, §3

[11] = phase 3 RA studies; cited from earlier work
CRP = details: RA; upadacitinib 6 mg BID; cited from earlier work
[12] = system: IL-6 cytokine receptor (JAK1/JAK2, JAK1/TYK2); assay: Human whole blood, IL-6-induced pSTAT1, CD14+ cells; assay type: cell-based
Protocol: Blood was warmed to 37°C prior to use.
(§9) Anti‐cell surface antibodies were added 15 minutes prior to cytokine stimulation; anti‐CD14‐Pacific Blue (0.5 µL/well) to GM‐CSF, IFNγ, and TPO‐treated samples; anti‐CD3‐BV650 (0.5 µL/well) plus anti‐CD14‐Pacific Blue (0.5 µL/well) to IL‐6‐treated samples; and anti‐CD19‐BV421 (0.5 µL/well) plus anti‐CD14‐AF488 (0.5 µL/well) to IL‐13‐treated samples.
as §6, §1, §2, §3

[13] = system: IL-27 cytokine receptor (JAK1/JAK2, JAK1/TYK2); assay: Human whole blood, IL-27-induced pSTAT1, lymphocytes; assay type: cell-based; details: Lymphocyte
Protocol: Blood was warmed to 37°C prior to use.
as §9, §6, §1, §2, §3

[14] = system: IL-4 cytokine receptor (JAK1/JAK3); assay: Human whole blood, IL-4-induced pSTAT5, lymphocytes; assay type: cell-based; details: Lymphocyte
Protocol: Blood was warmed to 37°C prior to use.
as §7, §6, §8, §3

[15] = system: IL-10 cytokine receptor (JAK1/TYK2); assay: Human whole blood, IL-10-induced pSTAT3, lymphocytes; assay type: cell-based; details: Lymphocyte
Protocol: Blood was warmed to 37°C prior to use.
as §4, §5, §6, §1, §2, §3

[16] = system: IL-21 cytokine receptor (JAK1/JAK3); assay: Human whole blood, IL-21-induced pSTAT3, lymphocytes; assay type: cell-based; details: Lymphocyte
Protocol: Blood was warmed to 37°C prior to use.
as §4, §5, §6, §1, §2, §3

[17] = system: IFNα cytokine receptor (JAK1/TYK2); assay: Human whole blood, IFNα-induced pSTAT3, lymphocytes; assay type: cell-based; details: Lymphocyte
Protocol: Blood was warmed to 37°C prior to use.
as §4, §5, §6, §1, §2, §3

[18] = system: IL-3 cytokine receptor (JAK2/JAK2); assay: Human whole blood, IL-3-induced pSTAT5, lymphocytes; assay type: cell-based; details: Homo sapiens, Lymphocyte
Protocol: Blood was warmed to 37°C prior to use.
as §4, §5, §6, §1, §2, §3

[19] = system: GM-CSF cytokine receptor (JAK2/JAK2); assay: Human whole blood, GM-CSF-induced pSTAT5, CD14+ cells; assay type: cell-based; details: Homo sapiens
Protocol: Blood was warmed to 37°C prior to use.
as §4, §5, §6, §1, §2, §3

[20] = human; upadacitinib 15 mg QD; cited from earlier work
[21] = unbound, Cav × fu; upadacitinib 15 mg QD
NK cell counts = details: RA; upadacitinib 6 mg BID; week 12; cited from earlier work
[22] = system: IL-2 cytokine receptor (JAK1/JAK3); assay: Human whole blood, IL-2-induced pSTAT5, lymphocytes; assay type: cell-based; details: Lymphocyte
Protocol: Blood was warmed to 37°C prior to use.
as §4, §5, §6, §1, §2, §3

in vitro = details: both, human, pooled human plasma
[23] = system: IL-13 cytokine receptor (JAK1/JAK2, JAK1/TYK2); assay: Human whole blood, IL-13-induced pSTAT6, CD14+ cells; assay type: cell-based
Protocol: Blood was warmed to 37°C prior to use.
as §9, §6, §1, §2, §3

[24] = system: IFNγ cytokine receptor (JAK1/JAK2); assay: Human whole blood, IFNγ-induced pSTAT1, CD14+ cells; assay type: cell-based; details: for IC50: Homo sapiens
Protocol: Blood was warmed to 37°C prior to use.
as §4, §5, §6, §1, §2, §3

[25] = system: IFNα cytokine receptor (JAK1/TYK2); assay: Human whole blood, IFNα-induced pSTAT1, lymphocytes; assay type: cell-based; details: for IC50: Homo sapiens, Lymphocyte
Protocol: Blood was warmed to 37°C prior to use.
as §4, §5, §6, §1, §2, §3

[26] = system: IL-6 cytokine receptor (JAK1/JAK2, JAK1/TYK2); assay: Human whole blood, IL-6-induced pSTAT3, CD3+ cells; assay type: cell-based
Protocol: Blood was warmed to 37°C prior to use.
as §9, §6, §1, §2, §3

[27] = system: IL-13 cytokine receptor (JAK1/JAK2, JAK1/TYK2); assay: Human whole blood, IL-13-induced pSTAT6, CD19+ cells; assay type: cell-based
Protocol: Blood was warmed to 37°C prior to use.
as §9, §6, §1, §2, §3

For `CC[C@@H]1CN(C(=O)NCC(F)(F)F)C[C@@H]1c1cnc2cnc3[nH]ccc3n12` [Upadacitinib], the “LogIC50, EPO induced pSTAT5, single experiment” value [1] was -6.909 log[M], the IC50 ([1]; read-out: IC50, EPO induced pSTAT5, single experiment) was 0.123 µM and the IC50 ([1]; read-out: IC50, EPO, pSTAT5) was 0.174 µM. For the same compound, the IC50 ([1]; read-out: IC50,u, EPO, pSTAT5) was 0.084 µM, the IC50 ([2]; read-out: IC50, TPO, pSTAT5) was 0.297 µM and the IC50 ([2]; read-out: IC50,u, TPO, pSTAT5) was 0.143 µM. For the same compound, the “Inhibition (ICxx) of JAK1/JAK2-mediated (IFNγ, G-CSF) and JAK2-mediated (TPO, IL-3, GM-CSF) cytokine receptors vs other JAK inhibitors” value [3] was “numerically greater”, the IC50 ([4]; read-out: IC50, IL-27, pSTAT3) was 0.044 µM and the IC50 ([4]; read-out: IC50,u, IL-27, pSTAT3) was 0.021 µM. The IC50 ([5]; read-out: IC50, IL-4, pSTAT6) was 0.077 µM, the IC50 ([5]; read-out: IC50,u, IL-4, pSTAT6) was 0.037 µM and the “LogIC50, IL-12 induced pSTAT4, single experiment” value [6] was -6.953 log[M]. For the same compound, the IC50 ([6]; read-out: IC50, IL-12, pSTAT4) was 0.145 µM, the IC50 ([6]; read-out: IC50, IL-12 induced pSTAT4, single experiment) was 0.112 µM and the IC50 ([6]; read-out: IC50,u, IL-12, pSTAT4) was 0.07 µM. For the same compound, the IC50 ([7]; read-out: IC50, IL-7, pSTAT5) was 0.101 µM, the IC50 ([7]; read-out: IC50,u, IL-7, pSTAT5) was 0.049 µM and the “LogIC50, IL-15 induced pSTAT5, single experiment” value [8] was -7.157 log[M]. For the same compound, the IC50 ([8]; read-out: IC50, IL-15, pSTAT5) was 0.064 µM, the IC50 ([8]; read-out: IC50, IL-15 induced pSTAT5, single experiment) was 0.0697 µM and the IC50 ([8]; read-out: IC50,u, IL-15, pSTAT5) was 0.031 µM. For the same compound, the IC50 ([9]; read-out: IC50, IL-23, pSTAT3) was 0.242 µM, the IC50 ([9]; read-out: IC50,u, IL-23, pSTAT3) was 0.117 µM and the “LogIC50, IL-6 induced pSTAT1 (CD3+ cells), single experiment” value [10] was -7.893 log[M]. The IC50 ([10]; read-out: IC50, IL-6, pSTAT1, CD3+ cells) was 0.012 µM, the IC50 ([10]; read-out: IC50, IL-6 induced pSTAT1 (CD3+ cells), single experiment) was 0.0128 µM and the IC50 ([10]; read-out: IC50,u, IL-6, pSTAT1, CD3+ cells) was 0.0059 µM. For the same compound, the herpes zoster occurrence [11] was “reported”, the “reduction of CRP levels from baseline to week 12” value (CRP) was -8.8 mg/L and the IC50 ([12]; read-out: IC50, IL-6, pSTAT1, CD14+ cells) was 0.026 µM. It also gave an IC50 ([12]; read-out: IC50,u, IL-6, pSTAT1, CD14+ cells) of 0.013 µM, an IC50 ([13]; read-out: IC50, IL-27, pSTAT1) of 0.052 µM and an IC50 ([13]; read-out: IC50,u, IL-27, pSTAT1) of 0.025 µM. For the same compound, the IC50 ([14]; read-out: IC50, IL-4, pSTAT5) was 0.0082 µM, the IC50 ([14]; read-out: IC50,u, IL-4, pSTAT5) was 0.004 µM and the IC50 ([15]; read-out: IC50, IL-10, pSTAT3) was 0.09 µM. It also gave an IC50 ([15]; read-out: IC50,u, IL-10, pSTAT3) of 0.043 µM, an IC50 ([16]; read-out: IC50, IL-21, pSTAT3) of 0.051 µM and an IC50 ([16]; read-out: IC50,u, IL-21, pSTAT3) of 0.025 µM. It also gave an IC50 ([17]; read-out: IC50, IFNα, pSTAT3) of 0.019 µM, an IC50 ([17]; read-out: IC50,u, IFNα, pSTAT3) of 0.0092 µM and an IC50 ([18]; read-out: IC50, IL-3, pSTAT5) of 0.326 µM. The IC50 ([18]; read-out: IC50,u, IL-3, pSTAT5) was 0.158 µM, the IC50 ([19]; read-out: IC50, GM-CSF, pSTAT5) was 0.782 µM and the IC50 ([19]; read-out: IC50,u, GM-CSF, pSTAT5) was 0.377 µM. The Cav [20] was 0.049 µM, the “Cav,u” value [21] was 0.0274 µM and the “change from baseline in NK cell counts” value (NK cell counts) was “approximately −50 cells/mm^3”. For the same compound, the IC50 ([22]; read-out: IC50, IL-2, pSTAT5) was 0.05 µM, the IC50 ([22]; read-out: IC50,u, IL-2, pSTAT5) was 0.024 µM and the fraction unbound at 6 h, 1 μmol/L (in vitro) was 0.56. For the same compound, the IC50 ([23]; read-out: IC50, IL-13, pSTAT6, CD14+ cells) was 0.126 µM, the IC50 ([23]; read-out: IC50,u, IL-13, pSTAT6, CD14+ cells) was 0.061 µM and the “LogIC50, IFNγ induced pSTAT1, single experiment” value [24] was -7.002 log[M]. The IC50 ([24]; read-out: IC50, IFNγ induced pSTAT1, single experiment) was 0.0996 µM, the IC50 ([24]; read-out: IC50, IFNγ, pSTAT1) was 0.109 µM and the IC50 ([24]; read-out: IC50,u, IFNγ, pSTAT1) was 0.053 µM. For the same compound, the “LogIC50, IFNα induced pSTAT1, single experiment” value ([25]; Figure S1B, Donor 256, Exp 1) was -7.685 log[M], the IC50 ([25]; read-out: IC50, IFNα induced pSTAT1, single experiment) was 0.0207 µM and the IC50 ([25]; read-out: IC50, IFNα, pSTAT1) was 0.021 µM. The IC50 ([25]; read-out: IC50,u, IFNα, pSTAT1) was 0.01 µM, the IC50 ([26]; read-out: IC50, IL-6, pSTAT3, CD3+ cells) was 0.152 µM and the IC50 ([26]; read-out: IC50,u, IL-6, pSTAT3, CD3+ cells) was 0.073 µM. The IC50 ([27]; read-out: IC50, IL-13, pSTAT6, CD19+ cells) was 0.072 µM and the IC50 ([27]; read-out: IC50,u, IL-13, pSTAT6, CD19+ cells) was 0.035 µM.
